Legend:
Format in all cases: in vivo
[1] = test system: Abutilon theophrasti (ABUTH); experiment: B3 Post-Emergence Efficacy—Test 3; conditions: post-emergence application, 250 g/ha, evaluated after 13 days (Test 3)
Procedure: (§1) B3 Post-Emergence Efficacy—Test 3 Seeds of a variety of test species are sown in standard soil in pots:—Amaranthus retoflexus (AMARE), Setaria faberi (SETFA), Echinochloa crus-galli (ECHCG), Ipomoea hederacea (IPOHE), Zea Mays (ZEAMX), Abutilon theophrasti (ABUTH). After 8 days cultivation (post-emergence) under controlled conditions in a glasshouse (at 24/16° C., day/night; 14 hours light; 65% humidity), the plants are sprayed with an aqueous spray solution derived from the formulation of the technical active ingredient in acetone/water (50:50) solution containing 0.5% Tween 20 (polyoxyethylene sorbitan monolaurate, CAS RN 9005-64-5). Compounds are applied at 250 g/ha. The test plants are then grown in a glasshouse under controlled conditions in a glasshouse (at 24/16° C., day/night; 14 hours light; 65% humidity) and watered twice daily. After 13 days, the test is evaluated for the percentage damage caused to the plant. The biological activities are assessed on a five point scale (5=80-100%; 4=60-79%; 3=40-59%; 2=20-39%; 1=0-19%). A blank value in the table is indicative that the compound was not tested on that species.

[2] = test system: Amaranthus retoflexus (AMARE); experiment: B3 Post-Emergence Efficacy—Test 3; conditions: post-emergence application, 250 g/ha, evaluated after 13 days (Test 3)
Procedure: as §1

[3] = test system: Echinochloa crus-galli (ECHCG); experiment: B3 Post-Emergence Efficacy—Test 3; conditions: post-emergence application, 250 g/ha, evaluated after 13 days (Test 3)
Procedure: as §1

[4] = test system: Ipomoea hederacea (IPOHE); experiment: B3 Post-Emergence Efficacy—Test 3; conditions: post-emergence application, 250 g/ha, evaluated after 13 days (Test 3)
Procedure: as §1

Setaria faberi (SETFA) [5] = experiment: B3 Post-Emergence Efficacy—Test 3; conditions: post-emergence application, 250 g/ha, evaluated after 13 days (Test 3)
Procedure: as §1

Zea Mays (ZEAMX) [6] = experiment: B3 Post-Emergence Efficacy—Test 3; conditions: post-emergence application, 250 g/ha, evaluated after 13 days (Test 3)
Procedure: as §1

[7] = test system: Abutilon theophrasti (ABUTH); experiment: B6 Pre-Emergence Efficacy—Test 3; conditions: pre-emergence application, 250 g/ha, evaluated after 13 days (Test 3)
Procedure: (§2) B6 Pre-Emergence Efficacy—Test 3 Seeds of a variety of test species were sown in standard soil in pots: Amaranthus retoflexus (AMARE), Setaria faberi (SETFA), Echinochloa crus-galli (ECHCG), Ipomoea hederacea (IPOHE), Zea Mays (ZEAMX), Abutilon theophrasti (ABUTH). After cultivation for one day (pre-emergence) under controlled conditions in a glasshouse (at 24/16° C., day/night; 14 hours light; 65% humidity), the plants were sprayed with an aqueous spray solution derived from the formulation of the technical active ingredient in acetone/water (50:50) solution containing 0.5% Tween 20 (polyoxyethelyene sorbitan monolaurate, CAS RN 9005-64-5). Compounds are applied at 250 g/ha. The test plants were then grown in a glasshouse under controlled conditions (at 24/16° C., day/night; 14 hours light; 65% humidity) and watered twice daily. After 13 days, the test is evaluated for the percentage damage caused to the plant. The biological activities are assessed on a five point scale (5=80-100%; 4=60-79%; 3=40-59%; 2=20-39%; 1=0-19%). A blank value in the table is indicative that the compound was not tested on that species.

[8] = test system: Amaranthus retoflexus (AMARE); experiment: B6 Pre-Emergence Efficacy—Test 3; conditions: pre-emergence application, 250 g/ha, evaluated after 13 days (Test 3)
Procedure: as §2

[9] = test system: Echinochloa crus-galli (ECHCG); experiment: B6 Pre-Emergence Efficacy—Test 3; conditions: pre-emergence application, 250 g/ha, evaluated after 13 days (Test 3)
Procedure: as §2

[10] = test system: Ipomoea hederacea (IPOHE); experiment: B6 Pre-Emergence Efficacy—Test 3; conditions: pre-emergence application, 250 g/ha, evaluated after 13 days (Test 3)
Procedure: as §2

Setaria faberi (SETFA) [11] = experiment: B6 Pre-Emergence Efficacy—Test 3; conditions: pre-emergence application, 250 g/ha, evaluated after 13 days (Test 3)
Procedure: as §2

Zea Mays (ZEAMX) [12] = experiment: B6 Pre-Emergence Efficacy—Test 3; conditions: pre-emergence application, 250 g/ha, evaluated after 13 days (Test 3)
Procedure: as §2

[13] = test system: Amaranthus retoflexus (AMARE); experiment: B2 Post-Emergence Efficacy—Test 2; conditions: post-emergence application, 250 g/ha, evaluated after 13 days (Test 2)
In short: (§3)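 Damage rated 13 days after treatment on a 1–5 scale (1=0-19%, 5=80-100%). Compounds were applied at 250 g/ha in acetone/water (50:50) with 0.5% Tween 20 to 8-day-old seedlings, grown under glasshouse conditions of 24/16 °C day/night, 14 h light, 65% humidity.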

[14] = test system: Echinochloa crus-galli (ECHCG); experiment: B2 Post-Emergence Efficacy—Test 2; conditions: post-emergence application, 250 g/ha, evaluated after 13 days (Test 2)
In short: as §3

[15] = test system: Ipomoea hederacea (IPOHE); experiment: B2 Post-Emergence Efficacy—Test 2; conditions: post-emergence application, 250 g/ha, evaluated after 13 days (Test 2)
In short: as §3

Lolium perenne (LOLPE) [16] = experiment: B2 Post-Emergence Efficacy—Test 2; conditions: post-emergence application, 250 g/ha, evaluated after 13 days (Test 2)
In short: as §3

Setaria faberi (SETFA) [17] = experiment: B2 Post-Emergence Efficacy—Test 2; conditions: post-emergence application, 250 g/ha, evaluated after 13 days (Test 2)
In short: as §3

Solanum nigrum (SOLNI) [18] = experiment: B2 Post-Emergence Efficacy—Test 2; conditions: post-emergence application, 250 g/ha, evaluated after 13 days (Test 2)
In short: as §3

[19] = test system: Amaranthus retoflexus (AMARE); experiment: B5 Pre-Emergence Efficacy—Test 2; conditions: 250 g/ha, evaluated after 13 days
In short: (§4)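 Pre-emergence glasshouse test: seeds sown in standard soil, sprayed one day later with compound at 250 g/ha in acetone/water (50:50) with 0.5% Tween 20. Grown at 24/16° C day/night, 14 h light, 65% humidity; percentage damage scored after 13 days on a five-point scale (5=80-100% to 1=0-19%).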

Solanum nigrum (SOLNI) [20] = experiment: B5 Pre-Emergence Efficacy—Test 2; conditions: 250 g/ha, evaluated after 13 days
In short: as §4

[21] = test system: Echinochloa crus-galli (ECHCG); experiment: B5 Pre-Emergence Efficacy—Test 2; set-up: key: 5-point scale: 5=80-100%, 4=60-79%, 3=40-59%, 2=20-39%, 1=0-19% damage; conditions: 250 g/ha, evaluated after 13 days
In short: as §4

[22] = test system: Ipomoea hederacea (IPOHE); experiment: B5 Pre-Emergence Efficacy—Test 2; set-up: key: 5-point scale: 5=80-100%, 4=60-79%, 3=40-59%, 2=20-39%, 1=0-19% damage; conditions: 250 g/ha, evaluated after 13 days
In short: as §4

Lolium perenne (LOLPE) [23] = experiment: B5 Pre-Emergence Efficacy—Test 2; set-up: key: 5-point scale: 5=80-100%, 4=60-79%, 3=40-59%, 2=20-39%, 1=0-19% damage; conditions: 250 g/ha, evaluated after 13 days
In short: as §4

Setaria faberi (SETFA) [24] = experiment: B5 Pre-Emergence Efficacy—Test 2; set-up: key: 5-point scale: 5=80-100%, 4=60-79%, 3=40-59%, 2=20-39%, 1=0-19% damage; conditions: 250 g/ha, evaluated after 13 days
In short: as §4

Structure (SMILES)	percentage damage caused to the plant, five point scale, ABUTH [1]	percentage damage caused to the plant, five point scale, AMARE [2]	percentage damage caused to the plant, five point scale, ECHCG [3]	percentage damage caused to the plant, five point scale, IPOHE [4]	percentage damage caused to the plant, five point scale, SETFA (Setaria faberi (SETFA) [5])	percentage damage caused to the plant, five point scale, ZEAMX (Zea Mays (ZEAMX) [6])	percentage damage caused to the plant, five point scale, ABUTH [7]	percentage damage caused to the plant, five point scale, AMARE [8]	percentage damage caused to the plant, five point scale, ECHCG [9]	percentage damage caused to the plant, five point scale, IPOHE [10]	percentage damage caused to the plant, five point scale, SETFA (Setaria faberi (SETFA) [11])	percentage damage caused to the plant, five point scale, ZEAMX (Zea Mays (ZEAMX) [12])	further results
Cc1nn(C)c(=O)c(-c2c(F)ccc(Cl)c2CCc2ccc(C3CCC(C)O3)cc2)c1O (stereo not shown) [Compound A-1.380]	3 (3=40-59%)	4 (4=60-79%)	1 (1=0-19%)	3 (3=40-59%)	3 (3=40-59%)	2 (2=20-39%)	4 (4=60-79%)	5 (5=80-100%)	0	4 (4=60-79%)	1 (1=0-19%)	2 (2=20-39%)	
Cc1ccc(-c2ccc(CCc3c(Cl)ccc(F)c3-c3c(O)c(C)nn(C)c3=O)cc2)o1 [Compound A-1.381]	3 (3=40-59%)	4 (4=60-79%)	0	4 (4=60-79%)	2 (2=20-39%)	1 (1=0-19%)	1 (1=0-19%)	3 (3=40-59%)	0	3 (3=40-59%)	0	1 (1=0-19%)	
CNS(=O)(=O)c1ccc(CCc2c(Cl)ccc(F)c2-c2c(O)c(C)nn(C)c2=O)cc1 [Compound A-1.390]	4 (4=60-79%)	5 (5=80-100%)		4 (4=60-79%)	5 (5=80-100%)	1 (1=0-19%)	5 (5=80-100%)	5 (5=80-100%)		5 (5=80-100%)	5 (5=80-100%)	1 (1=0-19%)	
Cc1nn(C)c(=O)c(-c2c(F)ccc(Cl)c2CCc2ccc(S(N)(=O)=O)cc2)c1O [Compound A-1.391]	2 (2=20-39%)	4 (4=60-79%)		3 (3=40-59%)	4 (4=60-79%)	1 (1=0-19%)	2 (2=20-39%)	5 (5=80-100%)		2 (2=20-39%)	5 (5=80-100%)	0	
Cc1nn(C)c(=O)c(-c2c(F)ccc(Cl)c2CCc2ccc(C(N)=O)cc2)c1O [Compound A-1.392]	4 (4=60-79%)	5 (5=80-100%)		3 (3=40-59%)	5 (5=80-100%)	2 (2=20-39%)	5 (5=80-100%)	5 (5=80-100%)	5 (5=80-100%)	5 (5=80-100%)	5 (5=80-100%)	2 (2=20-39%)	
Cc1nn(C)c(=O)c(-c2c(F)ccc(Cl)c2/C=C/c2ccc(C3CC3)cc2)c1OC(=O)C(C)C [Compound A-4.038, [5-[3-chloro-2-[(E)-2-(4-cyclopropylphenyl)vinyl]-6-fluoro-phenyl]-1,3-dimethyl-6-oxo-pyridazin-4-yl] 2-methylpropanoate]													percentage damage caused to the plant, five point scale, AMARE [13]: 1 (1=0-19%); percentage damage caused to the plant, five point scale, ECHCG [14]: 1 (1=0-19%); percentage damage caused to the plant, five point scale, IPOHE [15]: 2 (2=20-39%); percentage damage caused to the plant, five point scale, LOLPE (Lolium perenne (LOLPE) [16]): 1 (1=0-19%); percentage damage caused to the plant, five point scale, SETFA (Setaria faberi (SETFA) [17]): 0; percentage damage caused to the plant, five point scale, SOLNI (Solanum nigrum (SOLNI) [18]): 5 (5=80-100%); Control of weed species after pre-emergence application, AMARE (percentage damage, five point scale) [19]: 2 (2=20-39%); Control of weed species after pre-emergence application, SOLNI (percentage damage, five point scale) (Solanum nigrum (SOLNI) [20]): 1 (1=0-19%); Control of weed species after pre-emergence application, ECHCG (percentage damage, five point scale) [21]: 0; Control of weed species after pre-emergence application, IPOHE (percentage damage, five point scale) [22]: 0; Control of weed species after pre-emergence application, LOLPE (percentage damage, five point scale) (Lolium perenne (LOLPE) [23]): 0; Control of weed species after pre-emergence application, SETFA (percentage damage, five point scale) (Setaria faberi (SETFA) [24]): 0

From patent US12540120B2, “Herbicidal compounds” (SYNGENTA CROP PROTECTION AG, priority 2019, dated 2026)
